In publication PMC8286840, “Identifying SARS-CoV-2 antiviral compounds by screening for small molecule inhibitors of Nsp3 papain-like protease” (Biochemical Journal, 2021):
Where a name gives a salt, the structure may show the parent alone. Read-outs that look alike come from different tables or passages of the source.

What was measured:
[1] = biological target: T1, SARS-CoV-2 PLpro (nsp3 1564–1878) (Severe acute respiratory syndrome coronavirus 2, UniProt P0DTD1); assay: biochemical; set-up: FRET-quenched peptide (Pro3) cleavage by PLpro, 10 min pre-incubation, slope over 20 min, normalised to no-compound control; conditions: high concentration screen, read-out: % of control remaining
[2] = biological target: T1, SARS-CoV-2 PLpro (nsp3 1564–1878); assay: biochemical; set-up: FRET-quenched peptide (Pro3) cleavage by PLpro, 10 min pre-incubation, slope over 20 min, normalised to no-compound control; conditions: low concentration screen, read-out: % of control remaining

CC(C)(C)NCC(O)c1cc(O)cc(O)c1 (centres unmarked) [Terbutaline (sulfate)]
remaining activity at 3.75 µM ([1]; Well no.=6709): 106% | remaining activity at 1.25 µM ([2]; Well no.=6709): 106%

CC1=C(CC(=O)O)c2cc(F)ccc2/C1=C\c1ccc(S(C)(=O)=O)cc1 [Sulindac sulfone]
remaining activity at 3.75 µM ([1]; Well no.=1500): 96.6% | remaining activity at 1.25 µM ([2]; Well no.=1500): 95.3%

CCn1cnc2c(Nc3cccc(Cl)c3)nc(N[C@@H]3CCCC[C@@H]3N)nc21 [Cdk1 Inhibitor, CGP74514A]
remaining activity at 3.75 µM ([1]; Well no.=2366): 96.1% | remaining activity at 1.25 µM ([2]; Well no.=2366): 96.7%

COc1ccc(Br)cc1S(=O)(=O)NC(=O)/C=C/c1ccccc1Cc1ccc2ccccc2c1 [L-798106]
remaining activity at 3.75 µM ([1]; Well no.=5661): 95% | remaining activity at 1.25 µM ([2]; Well no.=5661): 91.7%

NC(N)=NCc1cccc(I)c1 [m-Iodobenzylguanidine hemisulfate]
remaining activity at 3.75 µM ([1]; Well no.=777): 108% | remaining activity at 1.25 µM ([2]; Well no.=777): 105%

O=C(Nc1cccc(C(=O)Nc2ccc(S(=O)(=O)O)c3cc(S(=O)(=O)O)cc(S(=O)(=O)O)c23)c1)Nc1cccc(C(=O)Nc2ccc(S(=O)(=O)O)c3cc(S(=O)(=O)O)cc(S(=O)(=O)O)c23)c1 [NF 023]
remaining activity at 3.75 µM ([1]; Well no.=813): 89.2% | remaining activity at 1.25 µM ([2]; Well no.=813): 88.1%

COc1ccc(/C=C\c2cc(OC)c(OC)c(OC)c2)cc1O [Combretastatin A4]
remaining activity at 3.75 µM ([1]; Well no.=5540): 102% | remaining activity at 1.25 µM ([2]; Well no.=5540): 101%

COc1ccc(/C=C/C(=O)Nc2ccccc2C(=O)O)cc1OC [Tranilast (trans-)]
remaining activity at 3.75 µM ([1]; Well no.=7917): 92% | remaining activity at 1.25 µM ([2]; Well no.=7917): 92.9%

CC(C)(Cc1nc(-c2ccc(O)cn2)no1)C(=O)NC1=C(C(=O)O)CCCC1 [MK-6892]
remaining activity at 3.75 µM ([1]; Well no.=7953): 100% | remaining activity at 1.25 µM ([2]; Well no.=7953): 101%

CCCCC(C)(C)[C@H](O)/C=C/[C@H]1[C@H](O)CC(=O)[C@@H]1C/C=C\CCCC(=O)O [16,16-Dimethyl-prostaglandin E2]
remaining activity at 3.75 µM ([1]; Well no.=4517): 99.3% | remaining activity at 1.25 µM ([2]; Well no.=4517): 96.1%

NCCCC[C@H](N[C@@H](CCc1ccccc1)C(=O)O)C(=O)N1CCC[C@H]1C(=O)O [Lisinopril (dihydrate)]
remaining activity at 3.75 µM ([1]; Well no.=7736): 96.7% | remaining activity at 1.25 µM ([2]; Well no.=7736): 95.6%

O=C(O)c1cccnc1 [Nicotinic Acid]
remaining activity at 3.75 µM ([1]; Well no.=8286): 96.4% | remaining activity at 1.25 µM ([2]; Well no.=8286): 95.6%

CCCCC/C=C\C/C=C\CCCCCCCCCCC(=O)O [12(Z), 15(Z)-Heneicosadienoic acid]
remaining activity at 3.75 µM ([1]; Well no.=4454): 89.9% | remaining activity at 1.25 µM ([2]; Well no.=4454): 95.1%

CN(C/C=C/c1ccccc1)Cc1cccc2ccccc12 [Naftifine HCl]
remaining activity at 3.75 µM ([1]; Well no.=4983): 96.2% | remaining activity at 1.25 µM ([2]; Well no.=4983): 96.8%

Nc1ccn([C@H]2CC[C@@H](CO)O2)c(=O)n1 [Zalcitabine]
remaining activity at 3.75 µM ([1]; Well no.=7856): 98.9% | remaining activity at 1.25 µM ([2]; Well no.=7856): 92.9%

NC(N)=S [Thiourea]
remaining activity at 3.75 µM ([1]; Well no.=4097): 101% | remaining activity at 1.25 µM ([2]; Well no.=4097): 98.1%

C[C@@]1(CO)[C@H](O)CC[C@@]2(C)[C@H]1CC[C@H]1C[C@@H]3C[C@@]12CC[C@]3(O)CO [Aphidicolin]
remaining activity at 3.75 µM ([1]; Well no.=3476): 101% | remaining activity at 1.25 µM ([2]; Well no.=3476): 104%

CC[C@H]1OC(=O)C[C@@H](O)[C@H](C)[C@@H](O[C@@H]2O[C@H](C)[C@@H](O)[C@H](N(C)C)[C@H]2O)[C@@H](CCN2C[C@H](C)C[C@H](C)C2)C[C@@H](C)C(=O)/C=C/C(C)=C/[C@@H]1CO[C@@H]1O[C@H](C)[C@@H](O)[C@@H](OC)[C@H]1OC [Tilmicosin]
remaining activity at 3.75 µM ([1]; Well no.=4746): 96.6% | remaining activity at 1.25 µM ([2]; Well no.=4746): 97.6%

O=c1ccccn1CC1(O)CCN(Cc2ccccc2)CC1 [YL0919]
remaining activity at 3.75 µM ([1]; Well no.=8009): 98.2% | remaining activity at 1.25 µM ([2]; Well no.=8009): 101%

CCCCCCCCCCCCCCCCCCOP(=O)([O-])OC1CC[N+](C)(C)CC1 [1,1-dimethylpiperidinium-4-yl octadecyl phosphate]
remaining activity at 3.75 µM ([1]; Well no.=5460): 107% | remaining activity at 1.25 µM ([2]; Well no.=5460): 102%

C/C(=C\c1csc(C)n1)[C@@H]1C[C@@H]2O[C@]2(C)CCC[C@H](C)[C@H](O)[C@@H](C)C(=O)C(C)(C)[C@@H](O)CC(=O)N1 [Ixabepilone]
remaining activity at 3.75 µM ([1]; Well no.=6934): 107% | remaining activity at 1.25 µM ([2]; Well no.=6934): 108%

CCCCCCCCCCCCCCCCCCC(=O)O [Nonadecanoic acid]
remaining activity at 3.75 µM ([1]; Well no.=4362): 95.6% | remaining activity at 1.25 µM ([2]; Well no.=4362): 100%

N[C@@H](CCC(=O)O)C(=O)O [L-Glutamic acid monosodium salt]
remaining activity at 3.75 µM ([1]; Well no.=8573): 106% | remaining activity at 1.25 µM ([2]; Well no.=8573): 103%

NCC(O)c1ccc(O)cc1 (racemic)
remaining activity at 3.75 µM ([1]; Well no.=1038): 95.7% | remaining activity at 1.25 µM ([2]; Well no.=1038): 97.4%

CC[C@@H](C)C(=O)O[C@H]1[C@H](O)[C@H]2[C@@H](CN3C[C@@H](C)CC[C@H]3[C@@]2(C)O)[C@@H]2C[C@]34O[C@]5(O)[C@@H](OC(=O)[C@](C)(O)[C@@H](C)O)CC[C@@]3(C)[C@@H]5[C@@H](OC(C)=O)[C@@H](OC(C)=O)[C@H]4[C@@]21O (stereo in doubt) [Protoveratrine B]
remaining activity at 3.75 µM ([1]; Well no.=3454): 98.3% | remaining activity at 1.25 µM ([2]; Well no.=3454): 97.9%

NS(=O)(=O)c1ccc(S(=O)(=O)Nc2cccc3c(Cl)c[nH]c23)cc1 [Indisulam]
remaining activity at 3.75 µM ([1]; Well no.=6068): 95% | remaining activity at 1.25 µM ([2]; Well no.=6068): 94.4%

CC[C@H](NC(=O)c1c(C)c(-c2ccccc2)nc2ccccc12)c1ccccc1 [SB-222200]
remaining activity at 3.75 µM ([1]; Well no.=7005): 86.5% | remaining activity at 1.25 µM ([2]; Well no.=7005): 96.1%

O=C1Nc2ccc(Br)cc2/C1=C/c1cc2c([nH]1)CCCC2 [VEGF Receptor 2 Kinase Inhibitor II]
remaining activity at 3.75 µM ([1]; Well no.=2651): 87.8% | remaining activity at 1.25 µM ([2]; Well no.=2651): 86%

Cc1ncc2ccccc2c1C#N [4-Cyano-3-methylisoquinoline]
remaining activity at 3.75 µM ([1]; Well no.=2397): 95.8% | remaining activity at 1.25 µM ([2]; Well no.=2397): 97.4%

CC[C@H](C)[C@@H]1NC(=O)[C@H](Cc2ccc(O)cc2)NC(=O)[C@@H](N)CSSC[C@@H](C(=O)N2CCC[C@H]2C(=O)N[C@@H](CC(C)C)C(=O)NCC(N)=O)NC(=O)[C@H](CC(N)=O)NC(=O)[C@H](CCC(N)=O)NC1=O [Oxytocin (acetate)]
remaining activity at 3.75 µM ([1]; Well no.=8107): 104% | remaining activity at 1.25 µM ([2]; Well no.=8107): 107%

CN[C@@H]1C[C@H]2O[C@@](C)([C@@H]1OC)n1c3ccccc3c3c4c(c5c6ccccc6n2c5c31)C(=O)NC4 [Staurosporine, Streptomyces sp.]
remaining activity at 3.75 µM ([1]; Well no.=2656): 95% | remaining activity at 3.75 µM ([1]; Well no.=2661): 84.8% | remaining activity at 1.25 µM ([2]; Well no.=2656): 94.8% | remaining activity at 1.25 µM ([2]; Well no.=2661): 89.3%

CCc1cc2c(=O)c(-c3nc4ccccc4s3)coc2c(CN2CCCCC2)c1O [SZL P1-41]
remaining activity at 3.75 µM ([1]; Well no.=6694): 102% | remaining activity at 1.25 µM ([2]; Well no.=6694): 103%

N[C@@H](Cn1cc(I)c(=O)[nH]c1=O)C(=O)O [S-5-Iodowillardiine]
remaining activity at 3.75 µM ([1]; Well no.=1340): 99.5% | remaining activity at 1.25 µM ([2]; Well no.=1340): 102%
